# Measurements as given in ChEMBL document CHEMBL2440076, “New triarylpyrazoles as broad-spectrum anticancer agents: design, synthesis, and biological evaluation” (Eur J Med Chem, 2013).
# Tests used:
# Type in all cases: functional
# SR [1] = assay: Growth inhibition of human SR cells assessed as cell growth at 3X10'-5 M after 48 hrs by sulforhodamine B assay; conditions: read-out: Activity
# [2] = Growth inhibition of human NCI-ADR-RES cells assessed as cell growth at 3X10'-6 M after 48 hrs by sulforhodamine B assay; conditions: read-out: Activity
# UACC-257 = assay: Growth inhibition of human UACC257 cells assessed as cell growth at 3X10'-8 M after 48 hrs by sulforhodamine B assay; conditions: UACC-257, 48 h, read-out: Activity
# SF-295 [3] = assay: Growth inhibition of human SF295 cells assessed as cell growth at 3X10'-7 M after 48 hrs by sulforhodamine B assay; conditions: SF-295, 48 h, read-out: Activity
# MCF7 = assay: Growth inhibition of human MCF7 cells assessed as cell growth at 3X10'-8 M after 48 hrs by sulforhodamine B assay; conditions: MCF7, 48 h, read-out: Activity
# LOX IMVI [4] = assay: Growth inhibition of human LOXIMVI cells assessed as cell growth at 3X10'-8 M after 48 hrs by sulforhodamine B assay; conditions: read-out: Activity
# U-251 [5] = assay: Growth inhibition of human U251 cells assessed as cell growth at 3X10'-7 M after 48 hrs by sulforhodamine B assay; conditions: U-251, 48 h, read-out: Activity
# LOX IMVI [6] = assay: Growth inhibition of human LOXIMVI cells assessed as cell growth at 3X10'-9 M after 48 hrs by sulforhodamine B assay; conditions: read-out: Activity
# HCT-15 [7] = assay: Growth inhibition of human HCT15 cells assessed as cell growth at 3X10'-7 M after 48 hrs by sulforhodamine B assay; conditions: HCT-15, 48 h, read-out: Activity
# SF-539 = assay: Growth inhibition of human SF539 cells assessed as cell growth at 3X10'-7 M after 48 hrs by sulforhodamine B assay; conditions: SF-539, 48 h, read-out: Activity
# 786-0 = assay: Growth inhibition of human 786-0 cells assessed as cell growth at 3X10'-5 M after 48 hrs by sulforhodamine B assay; conditions: 786-0, 48 h, read-out: Activity
# HT-29 = assay: Growth inhibition of human HT-29 cells assessed as cell growth at 3X10'-9 M after 48 hrs by sulforhodamine B assay; conditions: HT-29, 48 h, read-out: Activity
# SK-MEL-2 = assay: Growth inhibition of human SK-MEL-2 cells assessed as cell growth at 3X10'-8 M after 48 hrs by sulforhodamine B assay; conditions: SK-MEL-2, 48 h, read-out: Activity
# NCI-H226 = assay: Growth inhibition of human NCI-H226 cells assessed as cell growth at 3X10'-7 M after 48 hrs by sulforhodamine B assay; conditions: NCI-H226, 48 h, read-out: Activity
# LOX IMVI [8] = assay: Growth inhibition of human LOXIMVI cells assessed as cell growth at 3X10'-7 M after 48 hrs by sulforhodamine B assay; conditions: read-out: Activity
# SK-OV-3 = assay: Growth inhibition of human SKOV3 cells assessed as cell growth at 3X10'-7 M after 48 hrs by sulforhodamine B assay; conditions: SK-OV-3, 48 h, read-out: Activity
# SF-295 [9] = assay: Growth inhibition of human SF295 cells assessed as cell growth at 3X10'-6 M after 48 hrs by sulforhodamine B assay; conditions: SF-295, 48 h, read-out: Activity
# IGROV-1 = assay: Growth inhibition of human IGROV1 cells assessed as cell growth at 3X10'-6 M after 48 hrs by sulforhodamine B assay; conditions: IGROV-1, 48 h, read-out: Activity
# SW-620 = assay: Growth inhibition of human SW620 cells assessed as cell growth at 3X10'-6 M after 48 hrs by sulforhodamine B assay; conditions: SW-620, 48 h, read-out: Activity
# Malme-3M = assay: Growth inhibition of human MALME-3M cells assessed as cell growth at 3X10'-5 M after 48 hrs by sulforhodamine B assay; conditions: read-out: Activity
# U-251 [10] = assay: Growth inhibition of human U251 cells assessed as cell growth at 3X10'-8 M after 48 hrs by sulforhodamine B assay; conditions: U-251, 48 h, read-out: Activity
# PC-3 [11] = assay: Growth inhibition of human PC3 cells assessed as cell growth at 3X10'-6 M after 48 hrs by sulforhodamine B assay; conditions: PC-3, 48 h, read-out: Activity
# BT-549 = assay: Growth inhibition of human BT549 cells assessed as cell growth at 3X10'-8 M after 48 hrs by sulforhodamine B assay; conditions: BT-549, 48 h, read-out: Activity
# COLO 205 = assay: Growth inhibition of human COLO205 cells assessed as cell growth at 3X10'-9 M after 48 hrs by sulforhodamine B assay; conditions: COLO 205, 48 h, read-out: Activity
# PC-3 [12] = assay: Growth inhibition of human PC3 cells assessed as cell growth at 3X10'-8 M after 48 hrs by sulforhodamine B assay; conditions: PC-3, 48 h, read-out: Activity
# [13] = Growth inhibition of human Hs 578T cells assessed as cell growth at 3X10'-9 M after 48 hrs by sulforhodamine B assay; conditions: read-out: Activity
# OVCAR-5 = assay: Growth inhibition of human OVCAR5 cells assessed as cell growth at 3X10'-6 M after 48 hrs by sulforhodamine B assay; conditions: OVCAR-5, 48 h, read-out: Activity
# MDA-MB-435 = assay: Growth inhibition of human MDA-MB-435 cells assessed as cell growth at 3X10'-6 M after 48 hrs by sulforhodamine B assay; conditions: MDA-MB-435, 48 h, read-out: Activity
# HL-60(TB) = assay: Growth inhibition of human HL-60(TB) cells assessed as cell growth at 3X10'-9 M after 48 hrs by sulforhodamine B assay; conditions: HL-60, 48 h, read-out: Activity
# [14] = Growth inhibition of human HCC2998 cells assessed as cell growth at 3X10'-7 M after 48 hrs by sulforhodamine B assay; conditions: HCC 2998, 48 h, read-out: Activity
# SNB-75 = assay: Growth inhibition of human SNB75 cells assessed as cell growth at 3X10'-5 M after 48 hrs by sulforhodamine B assay; conditions: SNB-75, 48 h, read-out: Activity
# ACHN = assay: Growth inhibition of human ACHN cells assessed as cell growth at 3X10'-6 M after 48 hrs by sulforhodamine B assay; conditions: read-out: Activity
# OVCAR-4 = assay: Growth inhibition of human OVCAR4 cells assessed as cell growth at 3X10'-9 M after 48 hrs by sulforhodamine B assay; conditions: OVCAR-4, 48 h, read-out: Activity
# A498 = assay: Growth inhibition of human A498 cells assessed as cell growth at 3X10'-9 M after 48 hrs by sulforhodamine B assay; conditions: A498, 48 h, read-out: Activity
# HCT-116 = assay: Growth inhibition of human HCT116 cells assessed as cell growth at 3X10'-5 M after 48 hrs by sulforhodamine B assay; conditions: HCT-116, 48 h, read-out: Activity
# HCT-15 [15] = assay: Growth inhibition of human HCT15 cells assessed as cell growth at 3X10'-6 M after 48 hrs by sulforhodamine B assay; conditions: HCT-15, 48 h, read-out: Activity
# SR [16] = assay: Growth inhibition of human SR cells assessed as cell growth at 3X10'-6 M after 48 hrs by sulforhodamine B assay; conditions: read-out: Activity
SMILES,growth at 30 µM (SR [1]) [%],growth at 3 µM [2] [%],growth at 0.03 µM (UACC-257) [%],growth at 0.3 µM (SF-295 [3]) [%],growth at 0.03 µM (MCF7) [%],growth at 0.03 µM (LOX IMVI [4]) [%],growth at 0.3 µM (U-251 [5]) [%],growth at 0.003 µM (LOX IMVI [6]) [%],growth at 0.3 µM (HCT-15 [7]) [%],growth at 0.3 µM (SF-539) [%],growth at 30 µM (786-0) [%],growth at 0.003 µM (HT-29) [%],growth at 0.03 µM (SK-MEL-2) [%],growth at 0.3 µM (NCI-H226) [%],growth at 0.3 µM (LOX IMVI [8]) [%],growth at 0.3 µM (SK-OV-3) [%],growth at 3 µM (SF-295 [9]) [%],growth at 3 µM (IGROV-1) [%],growth at 3 µM (SW-620) [%],growth at 30 µM (Malme-3M) [%],other results
COc1cc(-c2nn(-c3cccc(NC(=O)Nc4ccc(Cl)c(C(F)(F)F)c4)c3)cc2-c2ccncc2)ccc1Cl,-12,3,90,93,92,100,90,97,95,91,-43,105,115,85,97,103,-11,5,17,-47,growth at 0.03 µM (U-251 [10]): 94%; growth at 3 µM (PC-3 [11]): -11%; growth at 0.03 µM (BT-549): 113%; growth at 0.003 µM (COLO 205): 106%; growth at 0.03 µM (PC-3 [12]): 95%; growth at 0.003 µM [13]: 90%; growth at 3 µM (OVCAR-5): 49%; growth at 3 µM (MDA-MB-435): -36%; growth at 0.003 µM (HL-60(TB)): 101%; growth at 0.3 µM [14]: 101%; growth at 30 µM (SNB-75): -24%; growth at 3 µM (ACHN): 8%; growth at 0.003 µM (OVCAR-4): 96%; growth at 0.003 µM (A498): 90%; growth at 30 µM (HCT-116): -63%; growth at 3 µM (HCT-15 [15]): 18%; growth at 3 µM (SR [16]): -13%
O=C(Nc1cccc(-n2cc(-c3ccncc3)c(-c3ccc(Cl)c(O)c3)n2)c1)Nc1cccc(C(F)(F)F)c1,-9,39,100,88,96,95,97,97,96,92,7,99,98,98,97,105,7,29,53,-10,growth at 0.03 µM (U-251 [10]): 100%; growth at 3 µM (PC-3 [11]): 13%; growth at 0.03 µM (BT-549): 96%; growth at 0.003 µM (COLO 205): 101%; growth at 0.03 µM (PC-3 [12]): 96%; growth at 0.003 µM [13]: 93%; growth at 3 µM (OVCAR-5): 97%; growth at 3 µM (MDA-MB-435): 26%; growth at 0.003 µM (HL-60(TB)): 99%; growth at 0.3 µM [14]: 106%; growth at 30 µM (SNB-75): 1%; growth at 3 µM (ACHN): 21%; growth at 0.003 µM (OVCAR-4): 101%; growth at 0.003 µM (A498): 92%; growth at 30 µM (HCT-116): -34%; growth at 3 µM (HCT-15 [15]): 27%; growth at 3 µM (SR [16]): 33%
